pIC50: −log10 of the molar value.
Legend:
Assay type in all cases: cell-based
[1] = tested on: HTT mRNA; assay: RT-qPCR splicing assay for HTT mRNA isoforms (canonical junction CJ and alternative junction AJ); details: A673 or K562 cell line, 24 hours compound treatment; for pIC50: decrease in CJ mRNA; for AC50: increase in AJ mRNA
Protocol: (§1) Compounds described herein were used to modulate RNA transcript abundance in cells. The expression of a target mRNA was measured by detecting the formation of an exon-exon junction in the canonical transcript (CJ). A compound mediated exon-inclusion event was detected by observing an increase in formation of a new junction with an alternative exon (AJ). Real-time qPCR assays were used to detect these splicing switches and interrogate the potency of various compounds towards different target genes. A high-throughput real time quantitative PCR (RT-qPCR) assay was developed to measure these two isoforms of the mRNA (CJ and AJ) for an exemplary gene, HTT, together with a control housekeeping gene, GAPDH or GUSB or PPIA, used for normalization. Briefly, the A673 or K562 cell line was treated with various compounds described herein (e.g., compounds of Formula (I)). After treatment, the levels of the HTT mRNA targets were determined from each sample of cell lysate by cDNA synthesis followed by qPCR.
Cells-to-CT 1-step kit: ThermoFisher A25602, Cells-to-CT lysis reagent: ThermoFisher 4391851C, TaqMan™ Fast Virus 1-Step Master Mix: ThermoFisher 4444436 GAPDH: VIC-PL, ThermoFisher 4326317E (Assay: Hs99999905_m1)—used for K562/suspension cell lines GUSB: VIC-PL, ThermoFisher 4326320E (Assay: Hs99999908_m1)—used for K562/suspension cell lines PPIA: VIC-PL, ThermoFisher 4326316E (Assay: Hs99999904_m1)—used for A673/adherent cell lines
(§2) The A673 cell line was cultured in DMEM with 10% FBS. Cells were diluted with full growth media and plated in a 96-well plate (15,000 cells in 100 ul media per well). The plate was incubated at 37° C. with 5% CO2 for 24 hours to allow cells to adhere. An 11-point 3-fold serial dilution of the compounds was made in DMSO then diluted in media in an intermediate plate. Compounds were transferred from the intermediate plate to the cell plate with the top dose at a final concentration of 10 uM in the well. Final DMSO concentration was kept at or below 0.25%. The cell plate was returned to the incubator at 37° C. with 5% CO2 for an additional 24 hours.
(§3) The K562 cell line was cultured in IMDM with 10% FBS. For K562, cells were diluted with full growth media and plated in either a 96-well plate (50,000 cells in 50 uL media per well) or a 384-well plate (8,000-40,000 cells in 45 uL media per well). An 11-point 3-fold serial dilution of the compounds were made in DMSO then diluted in media in an intermediate plate. Compound was transferred from the intermediate plate to the cell plate with the top dose at a final concentration of 10 uM in the well. Final DMSO concentration was kept at or below 0.25%. Final volume was 100 uL for 96-well plate and 50 uL for 384-well plate. The cell plate was then placed in an incubator at 37° C. with 5% CO2 for 24 hours.
(§4) The cells were then gently washed with 50 uL-100 uL cold PBS before proceeding to addition of lysis buffer. 30 uL-50 uL of room temperature lysis buffer with DNAse I (and optionally RNAsin) was added to each well. Cells were shaken/mixed thoroughly at room temperature for 5-10 minutes for lysis to take place and then 3 uL-5 uL of room temperature stop solution was added and wells were shaken/mixed again. After 2-5 minutes, the cell lysate plate was transferred to ice for RT-qPCR reaction setup. The lysates could also be frozen at −80° C. for later use.
In some cases, a direct lysis buffer was used. An appropriate volume of 3× lysis buffer (10 mM Tris, 150 mM NaCl, 1.5%-2.5% Igepal and 0.1-1 U/uL RNAsin, pH 7.4) was directly added to either K562 or A673 cells in media and mixed by pipetting 3 times. The plates were then incubated at room temperature with shaking/rocking for 20-50 minutes to allow for lysis to take place. After this time, the cell lysate plate was transferred to ice to set up for the RT-qPCR reactions. The lysates could also be frozen at −80° C. for later use. […]

[2] = tested on: HTT CJ mRNA; assay: Gene panel canonical junction qPCR assay, HTT; details: decrease in CJ mRNA levels, RT-qPCR
Protocol: as §1, §2, §3, §4
(§5) In some cases, a direct lysis buffer was used. An appropriate volume of 3× lysis buffer (10 mM Tris, 150 mM NaCl, 1.5%-2.5% Igepal and 0.1-1 U/uL RNAsin, pH 7.4) was directly added to either K562 or A673 cells in media and mixed by pipetting 3 times. The plates were then incubated at room temperature with shaking/rocking for 20-50 minutes to allow for lysis to take place. After this time, the cell lysate plate was transferred to ice to set up for the RT-qPCR reactions. The lysates could also be frozen at −80° C. for later use.
(§6) To set up 10 uL RT-qPCR reactions, cell lysates were transferred to 384-well qPCR plates containing the master mix according to the table below. The plates were sealed, gently vortexed, and spun down before the run. The volumes were adjusted accordingly in some instances where the reaction was carried in 20 uL. The table below summarizes the components of the RT-qPCR reactions:
(§7) The RT-qPCR reaction was performed using a QuantStudio (ThermoFisher) under the following fast cycling conditions. […]

[3] = tested on: SMN2 CJ mRNA; assay: Gene panel canonical junction qPCR assay, SMN2; details: decrease in CJ mRNA levels, RT-qPCR
Protocol: as §1, §2, §3, §4, §5, §6, §7

[4] = tested on: Target C CJ mRNA; assay: Gene panel canonical junction qPCR assay, Target C; details: decrease in CJ mRNA levels, RT-qPCR
Protocol: as §1, §2, §3, §4, §5, §6, §7

Structure (SMILES) | pIC50 [1] | AC50 [1] [nM] | pIC50 [2] | pIC50 [3] | pIC50 [4]
CN(c1ccc2c(n1)OCc1cc(-c3cn[nH]c3)ccc1-2)[C@@H]1C[C@H]2CC[C@@H](C1)N2 [Compound 108, (1R,5S)—N-Methyl-N-[8-(1H-pyrazol-4-yl)-6H-isochromeno[3,4-b]pyridin-3-yl]-8-azabicyclo [3.2.1] octan-3-amine] | > 7.00 | < 100 | > 7.00 | > 7.00 | > 7.00
CN(c1ccc2c(c1)CCOc1cc(-n3cccn3)ccc1-2)[C@@H]1C[C@H]2CC[C@@H](C1)N2 [Compound 113] | < 5.00 | > 10000 | < 5.00 | < 5.00 | < 5.00
CN(c1ccc2c(n1)OCc1cc(-c3cn[nH]c3)ccc1-2)C1CCNCC1 [Compound 116, N-Methyl-N-[8-(1H-pyrazol-4-yl)-6H-isochromeno[3,4-b]pyridin-3-yl]piperidin-4-amine] | 6.00 to 7.00 | 1000 to 10000 | 6.00 to 7.00 | 6.00 to 7.00 | 6.00 to 7.00
CN(c1ccc2c(n1)COc1cc(-c3cn[nH]c3)ccc1-2)[C@@H]1C[C@H]2CC[C@@H](C1)N2 [Compound 121, (1R,3S,5S)—N-methyl-N-[8-(1H-pyrazol-4-yl)-5H-chromeno[3,4-b]pyridin-3-yl]-8-azabicyclo[3.2.1]octan-3-amine] | 6.00 to 7.00 | 100 to 1000 | 6.00 to 7.00 | 6.00 to 7.00 | 6.00 to 7.00
CN(c1ccc2c(n1)COc1cc(-n3cccn3)ccc1-2)C1CC(C)(C)NC(C)(C)C1 [Compound 125, N,2,2,6,6-pentamethyl-N-[8-(pyrazol-1-yl)-5H-chromeno[3,4-b]pyridin-3-yl]piperidin-4-amine] | < 5.00 | > 10000 | < 5.00 | < 5.00 | < 5.00
CN(c1ccc2c(n1)CCOc1cc(-n3cccn3)ccc1-2)C1CC(C)(C)NC(C)(C)C1 [Compound 129, N-methyl-13-(pyrazol-1-yl)-N-(2,2,6,6-tetramethylpiperidin-4-yl)-10-oxa-6-azatricyclo[9.4.0.0^[2,7]]pentadeca-1(11),2(7),3,5,12,14-hexaen-5-amine] | < 5.00 | > 10000 | < 5.00 | < 5.00 | < 5.00
c1cnn(-c2ccc3c(c2)OCc2nc(N[C@@H]4C[C@H]5CC[C@@H](C4)N5)ccc2-3)c1 [Compound 135, (1R,3S,5S)—N-[8-(pyrazol-1-yl)-5H-chromeno[3,4-b]pyridin-3-yl]-8-azabicyclo[3.2.1]octan-3-amine] | 5.00 to 6.00 | 1000 to 10000 | 5.00 to 6.00 | 5.00 to 6.00 | 5.00 to 6.00
c1cnn(-c2ccc3c(c2)OCCc2nc(N[C@@H]4C[C@H]5CC[C@@H](C4)N5)ccc2-3)c1 [Compound 136, N-[(1R,3S,5S)-8-azabicyclo[3.2.1]octan-3-yl]-13-(pyrazol-1-yl)-10-oxa-6-azatricyclo[9.4.0.0^[2,7]]pentadeca-1(11),2(7),3,5,12,14-hexaen-5-amine] | < 5.00 | > 10000 | < 5.00 | < 5.00 | < 5.00
CC1(C)CC(Nc2ccc3c(n2)CCOc2cc(-n4cccn4)ccc2-3)CC(C)(C)N1 [Compound 137, 13-(pyrazol-1-yl)-N-(2,2,6,6-tetramethylpiperidin-4-yl)-10-oxa-6-azatricyclo [9.4.0.0^[2,7]]pentadeca-1(11),2(7),3,5,12,14-hexaen-5-amine] | 5.00 to 6.00 | 1000 to 10000 | < 5.00 | < 5.00 | 5.00 to 6.00
c1cnn(-c2ccc3c(c2)OCCc2cc(N[C@@H]4C[C@H]5CC[C@@H](C4)N5)ccc2-3)c1 [Compound 139, (1R,3S,5S)—N-[5-(pyrazol-1-yl)-8-oxatricyclo [9.4.0.0^[2,7]]pentadeca-1(11),2(7),3,5,12,14-hexaen-13-yl]-8-azabicyclo [3.2.1] octan-3-amine] | < 5.00 | > 10000 | < 5.00 | < 5.00 | < 5.00
CN(c1cnc2c(n1)OCc1cc(-c3cn[nH]c3)ccc1-2)C1CC(C)(C)NC(C)(C)C1 [Compound 142, N,2,2,6,6-pentamethyl-N-[8-(1H-pyrazol-4-yl)-6H-isochromeno[3,4-b]pyrazin-3-yl]piperidin-4-amine] | 6.00 to 7.00 | 100 to 1000 | 6.00 to 7.00 | 6.00 to 7.00 | 5.00 to 6.00
c1cc2c(cc1-c1cn[nH]c1)COc1nc(N[C@@H]3C[C@H]4CC[C@@H](C3)N4)cnc1-2 [Compound 143, (exo)-N-[8-(1H-pyrazol-4-yl)-6H-isochromeno[3,4-b]pyrazin-3-yl]-8-azabicyclo[3.2.1]octan-3-amine] | 6.00 to 7.00 | 100 to 1000 | 6.00 to 7.00 | 6.00 to 7.00 | 6.00 to 7.00
CN(c1cnc2c(n1)OCc1cc(-c3cn[nH]c3)ccc1-2)[C@@H]1C[C@H]2CC[C@@H](C1)N2 [Compound 144, (exo)-N-methyl-N-[8-(1H-pyrazol-4-yl)-6H-isochromeno[3,4-b]pyrazin-3-yl]-8-azabicyclo[3.2.1]octan-3-amine] | 6.00 to 7.00 | 100 to 1000 | 6.00 to 7.00 | < 5.00 | 6.00 to 7.00
CN(c1ccc2c(n1)OCCc1cc(-c3cn[nH]c3)ccc1-2)C1CC(C)(C)NC(C)(C)C1 [Compound 145] | < 5.00 | > 10000 | < 5.00 | 5.00 to 6.00 | 5.00 to 6.00
CN(c1ccc2c(n1)OCCc1cc(-c3cn[nH]c3)ccc1-2)[C@@H]1C[C@H]2CC[C@@H](C1)N2 [Compound 146] | 5.00 to 6.00 | 1000 to 10000 | 5.00 to 6.00 | < 5.00 | < 5.00
CN(c1ccc2c(n1)OCc1cc(-c3cn[nH]c3)ccc1-2)C1CC(C)(C)NC(C)(C)C1 [Compound 147, N,2,2,6,6-pentamethyl-N-[8-(1H-pyrazol-4-yl)-6H-isochromeno[3,4-b]pyridin-3-yl]piperidin-4-amine] | 6.00 to 7.00 | 100 to 1000 | 6.00 to 7.00 | < 5.00 | 6.00 to 7.00
CN(c1ccc2c(n1)OCc1cc(-n3cccn3)ccc1-2)C1CC(C)(C)NC(C)(C)C1 [Compound 148, N,2,2,6,6-pentamethyl-N-[8-(pyrazol-1-yl)-6H-isochromeno[3,4-b]pyridin-3-yl]piperidin-4-amine] | 5.00 to 6.00 | 1000 to 10000 | 5.00 to 6.00 | 6.00 to 7.00 | 5.00 to 6.00

From patent US20230148184A1, “COMPOUNDS AND METHODS FOR MODULATING SPLICING” (REMIX THERAPEUTICS INC., priority 2020, published 2023)
